From patent US20230159509A1 (Amathus Therapeutics, Inc., priority 2020, published 2023)

Legend:
TRAP1 enzyme [1] = target: T1, TRAP1 enzyme (Homo sapiens, UniProt Q12931); assay: Malachite green phosphate assay of TRAP1 ATPase activity; format: biochemical; settings: for EC50: concentration for half maximal activation, read-out: Malachite Green Fluor DRC: GeoMean EC50; for Emax: maximal percent activation, read-out: Malachite Green Fluor DRC: Mean Emax
T1 construct: 150 nM Trap1 enzyme was incubated with various concentrations of the test compound
T1 sequence (Q12931 60-704): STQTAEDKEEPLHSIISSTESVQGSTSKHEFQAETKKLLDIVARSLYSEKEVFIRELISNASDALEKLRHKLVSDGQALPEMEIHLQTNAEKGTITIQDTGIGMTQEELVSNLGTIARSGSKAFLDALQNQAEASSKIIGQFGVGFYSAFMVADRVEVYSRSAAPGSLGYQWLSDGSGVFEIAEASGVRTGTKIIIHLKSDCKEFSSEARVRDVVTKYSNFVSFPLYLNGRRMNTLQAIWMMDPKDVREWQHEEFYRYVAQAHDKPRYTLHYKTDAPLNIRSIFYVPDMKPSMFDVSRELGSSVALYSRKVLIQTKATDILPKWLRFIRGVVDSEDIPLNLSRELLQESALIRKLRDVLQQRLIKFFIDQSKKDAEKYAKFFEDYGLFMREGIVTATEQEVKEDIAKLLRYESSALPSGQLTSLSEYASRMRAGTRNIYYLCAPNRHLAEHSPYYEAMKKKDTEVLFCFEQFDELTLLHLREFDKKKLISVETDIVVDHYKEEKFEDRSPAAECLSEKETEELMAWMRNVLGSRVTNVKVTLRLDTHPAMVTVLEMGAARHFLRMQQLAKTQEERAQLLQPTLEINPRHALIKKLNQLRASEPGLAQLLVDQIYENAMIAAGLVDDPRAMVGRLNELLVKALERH
Description: The Potency of test compounds to modulate the ATPase activity of TRAP1 enzyme was evaluated using malachite green phosphatase assay. The assay is based on quantification of the green complex formed between Malachite Green, molybdate and inorganic phosphate generated in the phosphatase reaction. Assays were performed using a Malachite Green assay kit. All the assays were carried out in a 96-well transparent plate. The buffer used was 50 mM HEPES (pH 7.5), 20 mM KCl, 4 mM MgCl2 and 0.05% BSA. 150 nM Trap1 enzyme was incubated with various concentrations of the test compound (0.78 μM-100 μM) at 37° C. for 30 mins. 20 μM ATP was added to each well (except blank wells) to start the reaction and the plate was then incubated at 37° C. for 180 mins. 10 μl of the reaction volume of each sample was then transferred to a white 384-well proxiplate in quadruplets. 2.5 μl of Malachite Green reagent was added to all the wells and the plate was equilibrated for 15 mins. The reaction was stopped by adding 12% H2SO4 and the plate was read for fluorescence at 620 nm (λex=573 nm). The amount of phosphate released was estimated from a phosphate standard curve generated at the same experimental conditions. Emax (Maximal percent activation) and EC50 (concentration of test compound for half maximal activation) were estimated by fitting the dose response data to a sigmoidal curve fitting equation using Graphpad Prism software V.7.0.

TRAP1 enzyme [2] = target: T1, TRAP1 enzyme; assay: ADP Glo assay of TRAP1 ATPase activity; format: biochemical; settings: 1 h; compound concentration 50 μM; read-out: ADP-Glo Percent Activation at 50 μM
Procedure, shortened: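 Compound (0.79–100 μM) was preincubated 30 min at 37° C with 150 nM TRAP1 in 25 mM Pipes pH 7.5, 40 mM KCl, 0.05 mM MgCl2. Reaction started with 20 μM ATP, 60 min at 37° C. ADP measured by luminescence against a standard curve; activation fitted sigmoidally for EC50 and Emax.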

SMILES	EC50 (TRAP1 enzyme [1])	Emax (TRAP1 enzyme [1])	activation at 50 µM (TRAP1 enzyme [2])
COc1ncc(NC(=O)c2ncc(-c3ccccc3)o2)cc1S(=O)(=O)Nc1ccc(Cl)cc1 [compound 535, N-(5-(N-(4-chlorophenyl)sulfamoyl)-6-methoxypyridin-3-yl)-5-phenyloxazole-2-carboxamide]	10 to 20 µM	160 to 199%	–
Cc1cccc(C)c1NS(=O)(=O)c1cncc(NC(=O)c2cnc(-c3ccccc3)[nH]2)c1 [compound 592, N-(5-(N-(2,6-dimethylphenyl)sulfamoyl)pyridin-3-yl)-2-phenyl-1H-imidazole-5-carboxamide]	20 to 100 µM	160 to 199%	–
COc1ncc(NC(=O)c2ncc(-c3ccccc3)o2)cc1S(=O)(=O)Nc1ccc(C(F)(F)F)cc1 [compound 594, N-(6-methoxy-5-(N-(4-(trifluoromethyl)phenyl)sulfamoyl)pyridin-3-yl)-5-phenyloxazole-2-carboxamide]	20 to 100 µM	119 to 159%	–
COc1ncc(NC(=O)c2cnc(-c3ccccc3)o2)cc1S(=O)(=O)Nc1ccc(C(F)(F)F)cc1 [compound 604, N-(6-methoxy-5-(N-(4-(trifluoromethyl)phenyl)sulfamoyl)pyridin-3-yl)-2-phenyloxazole-5-carboxamide]	20 to 100 µM	160 to 199%	–
COc1ncc(NC(=O)c2coc(C3CCCCC3)n2)cc1S(=O)(=O)Nc1c(C)cccc1C [compound 2743]	–	–	151 to 180%
COc1ncc(NC(=O)c2ccnc(N3CCOCC3)c2)cc1S(=O)(=O)Nc1c(C)cccc1C [compound 2744]	–	–	181 to 352%
COc1ncc(NC(=O)c2ccc(C3CCN(C)CC3)cc2)cc1S(=O)(=O)Nc1c(C)cccc1C [compound 2745]	–	–	151 to 180%
COc1ncc(NC(=O)c2ccc(NC(C)=O)cc2)cc1S(=O)(=O)Nc1c(C)cccc1C [compound 2746]	–	–	181 to 352%
COc1ncc(NC(=O)c2ccc(CN3CCCC3)cc2)cc1S(=O)(=O)Nc1c(C)cccc1C [compound 2751]	–	–	120 to 150%
COc1ncc(NC(=O)c2cccnc2N2CCOCC2)cc1S(=O)(=O)Nc1c(C)cccc1C [compound 2759]	–	–	181 to 352%
COc1ncc(NC(=O)c2ccc(NS(C)(=O)=O)cc2)cc1S(=O)(=O)Nc1c(C)cccc1C [compound 2761]	–	–	181 to 352%
COc1ncc(NC(=O)c2ccc(N3CCN(C)CC3)c(Cl)c2)cc1S(=O)(=O)Nc1c(C)cccc1C [compound 2764]	–	–	181 to 352%
CCCN1CCN(c2ccc(C(=O)Nc3cnc(OC)c(S(=O)(=O)Nc4c(C)cccc4C)c3)cc2)CC1 [compound 2769]	–	–	181 to 352%
COc1ncc(NC(=O)c2ccc(CN3CCCCC3)cc2)cc1S(=O)(=O)Nc1c(C)cccc1C [compound 2770]	–	–	151 to 180%
COc1ncc(NC(=O)c2ccc(N3CCN(C)CC3)cc2Cl)cc1S(=O)(=O)Nc1c(C)cccc1C [compound 2774]	–	–	181 to 352%
COc1ncc(NC(=O)c2ccc(N3CCN(C)CC3)nc2)cc1S(=O)(=O)Nc1c(C)cccc1C [compound 2775]	–	–	181 to 352%
COc1ncc(NC(=O)c2cccc(N3CCOCC3)c2C)cc1S(=O)(=O)Nc1c(C)cccc1C [compound 2782]	–	–	181 to 352%
COc1ncc(NC(=O)c2cccc(NC(=O)N(C)C)c2)cc1S(=O)(=O)Nc1c(C)cccc1C [compound 2784]	–	–	181 to 352%
CCN1CCN(c2ccc(C(=O)Nc3cnc(OC)c(S(=O)(=O)Nc4c(C)cccc4C)c3)cc2)CC1 [compound 2791]	–	–	181 to 352%
COc1ncc(NC(=O)c2cc3c(s2)CCC3)cc1S(=O)(=O)Nc1c(C)cccc1C [compound 2792]	–	–	120 to 150%

Continued, values first:

EC50 (TRAP1 enzyme [1])	Emax (TRAP1 enzyme [1])	activation at 50 µM (TRAP1 enzyme [2])	SMILES
–	–	151 to 180%	COc1ncc(NC(=O)c2cc(OC)n(C)n2)cc1S(=O)(=O)Nc1c(C)cccc1C [compound 2747]
–	–	151 to 180%	COc1ncc(NC(=O)c2cc(C)[nH]n2)cc1S(=O)(=O)Nc1c(C)cccc1C [compound 2749]
–	–	120 to 150%	CCn1cc(C(=O)Nc2cnc(OC)c(S(=O)(=O)Nc3c(C)cccc3C)c2)cn1 [compound 2750]
–	–	120 to 150%	CCc1noc(C)c1C(=O)Nc1cnc(OC)c(S(=O)(=O)Nc2c(C)cccc2C)c1 [compound 2752]
–	–	120 to 150%	COc1ncc(NC(=O)c2ncc[nH]2)cc1S(=O)(=O)Nc1c(C)cccc1C [compound 2753]
–	–	120 to 150%	COc1ncc(NC(=O)c2cc(C)no2)cc1S(=O)(=O)Nc1c(C)cccc1C [compound 2754]
–	–	151 to 180%	COc1ncc(NC(=O)c2cn(C(C)(C)C)nn2)cc1S(=O)(=O)Nc1c(C)cccc1C [compound 2755]
–	–	151 to 180%	COc1ncc(NC(=O)c2n[nH]cc2C)cc1S(=O)(=O)Nc1c(C)cccc1C [compound 2756]
–	–	151 to 180%	COc1ncc(NC(=O)c2nnsc2C2CC2)cc1S(=O)(=O)Nc1c(C)cccc1C [compound 2758]
–	–	120 to 150%	COc1ncc(NC(=O)c2cnn(C)c2OC)cc1S(=O)(=O)Nc1c(C)cccc1C [compound 2762]
–	–	151 to 180%	COc1ncc(NC(=O)c2ccc(CO)cc2)cc1S(=O)(=O)Nc1c(C)cccc1C [compound 2766]
–	–	181 to 352%	COc1ncc(NC(=O)c2cccc(CO)c2)cc1S(=O)(=O)Nc1c(C)cccc1C [compound 2767]
–	–	181 to 352%	COc1nc(C(F)(F)F)c(C(=O)Nc2cnc(OC)c(S(=O)(=O)Nc3c(C)cccc3C)c2)s1 [compound 2768]
–	–	151 to 180%	COc1ncc(NC(=O)c2cn3c(n2)CCCC3)cc1S(=O)(=O)Nc1c(C)cccc1C [compound 2771]
–	–	120 to 150%	COc1ncc(NC(=O)c2nccn2C)cc1S(=O)(=O)Nc1c(C)cccc1C [compound 2772]
–	–	120 to 150%	COc1ncc(NC(=O)c2cnn(C)c2C)cc1S(=O)(=O)Nc1c(C)cccc1C [compound 2776]
–	–	120 to 150%	COc1ncc(NC(=O)c2csnn2)cc1S(=O)(=O)Nc1c(C)cccc1C [compound 2777]
–	–	151 to 180%	COc1ncc(NC(=O)c2[nH]ncc2Cl)cc1S(=O)(=O)Nc1c(C)cccc1C [compound 2779]
–	–	151 to 180%	COc1ncc(NC(=O)c2nnsc2C)cc1S(=O)(=O)Nc1c(C)cccc1C [compound 2780]
–	–	120 to 150%	COc1ncc(NC(=O)c2ccno2)cc1S(=O)(=O)Nc1c(C)cccc1C [compound 2781]
–	–	120 to 150%	COCc1c[nH]c(C(=O)Nc2cnc(OC)c(S(=O)(=O)Nc3c(C)cccc3C)c2)c1 [compound 2785]
–	–	181 to 352%	CCc1cc(C(=O)Nc2cnc(OC)c(S(=O)(=O)Nc3c(C)cccc3C)c2)nn1C [compound 2786]
–	–	151 to 180%	COc1ncc(NC(=O)c2ccc(C(C)(C)O)cc2)cc1S(=O)(=O)Nc1c(C)cccc1C [compound 2787]
–	–	181 to 352%	COc1ncc(NC(=O)c2ccc(N(C)C)nc2)cc1S(=O)(=O)Nc1c(C)cccc1C [compound 2788]
–	–	120 to 150%	COc1ncc(NC(=O)c2cnccc2N(C)C)cc1S(=O)(=O)Nc1c(C)cccc1C [compound 2789]
–	–	181 to 352%	COc1nc2c(cc1C(=O)Nc1cnc(OC)c(S(=O)(=O)Nc3c(C)cccc3C)c1)CCC2 [compound 2790]
–	–	181 to 352%	COc1ncc(NC(=O)c2cnc3c(c2)OCCN3C)cc1S(=O)(=O)Nc1c(C)cccc1C [compound 2793]
